Measurements as given in PubChem BioAssay (NCI).
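Exposure lasted 48 hours, with cells grown in 96-well plates and compounds tested at five concentrations. GI50: concentration for 50% inhibition of growth. TGI: concentration producing complete growth inhibition.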

Assays:
Assay in all cases: inhibition of tumour cell growth, NCI panel, 48 h
NCI-H23 lung = tested on: NCI-H23 lung
SW-620 colon = tested on: SW-620 colon
UACC-257 melanoma = tested on: UACC-257 melanoma
HOP-62 NSCLC = tested on: HOP-62 NSCLC
SK-MEL-5 melanoma = tested on: SK-MEL-5 melanoma
OVCAR-3 ovarian = tested on: OVCAR-3 ovarian
OVCAR-4 ovarian = tested on: OVCAR-4 ovarian
SF-295 CNS = tested on: SF-295 CNS
SNB-19 CNS = tested on: SNB-19 CNS
SK-OV-3 ovarian = tested on: SK-OV-3 ovarian
MALME-3M melanoma = tested on: MALME-3M melanoma
DU-145 prostate = tested on: DU-145 prostate
TK-10 renal = tested on: TK-10 renal
MDA-MB-435 = tested on: MDA-MB-435
SF-539 CNS = tested on: SF-539 CNS
MCF7 breast = tested on: MCF7 breast
HOP-92 NSCLC = tested on: HOP-92 NSCLC
NCI-H460 lung = tested on: NCI-H460 lung
SF-268 CNS = tested on: SF-268 CNS
RXF 393 renal = tested on: RXF 393 renal
EKVX NSCLC = tested on: EKVX NSCLC
RPMI-8226 leukemia = tested on: RPMI-8226 leukemia
COLO 205 colon = tested on: COLO 205 colon
A498 renal = tested on: A498 renal
SK-MEL-28 melanoma = tested on: SK-MEL-28 melanoma
SNB-75 CNS = tested on: SNB-75 CNS
UO-31 renal = tested on: UO-31 renal
MDA-MB-231 breast = tested on: MDA-MB-231 breast
NCI-H522 lung = tested on: NCI-H522 lung
HL-60(TB) leukemia = tested on: HL-60(TB) leukemia
786-0 renal = tested on: 786-0 renal
ACHN renal = tested on: ACHN renal
OVCAR-5 ovarian = tested on: OVCAR-5 ovarian
PC-3 prostate = tested on: PC-3 prostate
HCC-2998 colon = tested on: HCC-2998 colon
UACC-62 melanoma = tested on: UACC-62 melanoma
BT-549 breast = tested on: BT-549 breast
MOLT-4 leukemia = tested on: MOLT-4 leukemia
A549 NSCLC = tested on: A549 NSCLC
K-562 leukemia = tested on: K-562 leukemia
SR leukemia = tested on: SR leukemia
IGROV1 ovarian = tested on: IGROV1 ovarian
SK-MEL-2 melanoma = tested on: SK-MEL-2 melanoma
HT29 colon = tested on: HT29 colon
LOX IMVI melanoma = tested on: LOX IMVI melanoma
M14 melanoma = tested on: M14 melanoma
NCI/ADR-RES ovarian = tested on: NCI/ADR-RES ovarian
T-47D breast = tested on: T-47D breast
CAKI-1 renal = tested on: CAKI-1 renal
HS 578T breast = tested on: HS 578T breast
SN12C renal = tested on: SN12C renal
NCI-H226 lung = tested on: NCI-H226 lung
HCT-116 colon = tested on: HCT-116 colon
CCRF-CEM leukemia = tested on: CCRF-CEM leukemia
U251 CNS = tested on: U251 CNS
HCT-15 colon = tested on: HCT-15 colon
KM12 colon = tested on: KM12 colon
MDA-MB-468 breast = tested on: MDA-MB-468 breast
OVCAR-8 ovarian = tested on: OVCAR-8 ovarian

Work on Cc1ccc(-c2cc(C(=O)N=Nc3c(O)[nH]c4ccccc34)c3ccccc3n2)cc1 yielded a GI50 (NCI-H23 lung) of 4.67 µM, a TGI (NCI-H23 lung) of 26.1 µM and a GI50 (SW-620 colon) of 6.07 µM. For the same compound, the TGI (SW-620 colon) was 34 µM, the GI50 (UACC-257 melanoma) was 14.3 µM and the TGI (UACC-257 melanoma) was 32.2 µM. The GI50 (HOP-62 NSCLC) was 13.5 µM, the TGI (HOP-62 NSCLC) was 29.1 µM and the GI50 (SK-MEL-5 melanoma) was 5.66 µM. For the same compound, the TGI (SK-MEL-5 melanoma) was 20 µM, the GI50 (OVCAR-3 ovarian) was 5.2 µM and the TGI (OVCAR-3 ovarian) was 25 µM. For the same compound, the GI50 (OVCAR-4 ovarian) was 3.43 µM, the TGI (OVCAR-4 ovarian) was 26.6 µM and the GI50 (SF-295 CNS) was 13.3 µM. For the same compound, the TGI (SF-295 CNS) was 28.5 µM, the GI50 (SNB-19 CNS) was 10.6 µM and the TGI (SNB-19 CNS) was 48.5 µM. For the same compound, the GI50 (SK-OV-3 ovarian) was 18.1 µM, the TGI (SK-OV-3 ovarian) was 36.4 µM and the GI50 (MALME-3M melanoma) was 6.38 µM. The TGI (MALME-3M melanoma) was 21.1 µM, the GI50 (DU-145 prostate) was 5.48 µM and the TGI (DU-145 prostate) was 37.6 µM. It also gave a GI50 (TK-10 renal) of 20.6 µM, a TGI (TK-10 renal) of 40.9 µM and a GI50 (MDA-MB-435) of 3 µM. It also gave a TGI (MDA-MB-435) of 11.5 µM, a GI50 (SF-539 CNS) of 3.27 µM and a TGI (SF-539 CNS) of 11.3 µM. It also gave a GI50 (MCF7 breast) of 4.39 µM, a TGI (MCF7 breast) of 33.4 µM and a GI50 (HOP-92 NSCLC) of 11.2 µM. The TGI (HOP-92 NSCLC) was 36.4 µM, the GI50 (NCI-H460 lung) was 2.87 µM and the TGI (NCI-H460 lung) was 8.25 µM. It also gave a GI50 (SF-268 CNS) of 12.8 µM, a TGI (SF-268 CNS) of over 100 µM and a GI50 (RXF 393 renal) of 1.88 µM. For the same compound, the TGI (RXF 393 renal) was 6.11 µM, the GI50 (EKVX NSCLC) was 6.08 µM and the TGI (EKVX NSCLC) was 30.4 µM. For the same compound, the GI50 (RPMI-8226 leukemia) was 5.34 µM, the TGI (RPMI-8226 leukemia) was over 100 µM and the GI50 (COLO 205 colon) was 15.4 µM. It also gave a TGI (COLO 205 colon) of 37.9 µM, a GI50 (A498 renal) of 19.3 µM and a TGI (A498 renal) of 39.8 µM. It also gave a GI50 (SK-MEL-28 melanoma) of 11.9 µM, a TGI (SK-MEL-28 melanoma) of 26.6 µM and a GI50 (SNB-75 CNS) of 2.54 µM. For the same compound, the TGI (SNB-75 CNS) was 17.3 µM, the GI50 (UO-31 renal) was 10.7 µM and the TGI (UO-31 renal) was 22.6 µM. It also gave a GI50 (MDA-MB-231 breast) of 2.39 µM, a TGI (MDA-MB-231 breast) of 6.41 µM and a GI50 (NCI-H522 lung) of 9.85 µM. It also gave a TGI (NCI-H522 lung) of 25.6 µM, a GI50 (HL-60(TB) leukemia) of 6.54 µM and a TGI (HL-60(TB) leukemia) of 43.9 µM. It also gave a GI50 (786-0 renal) of 2.87 µM, a TGI (786-0 renal) of 9.8 µM and a GI50 (ACHN renal) of 10.3 µM. For the same compound, the TGI (ACHN renal) was 22.2 µM, the GI50 (OVCAR-5 ovarian) was 8.67 µM and the TGI (OVCAR-5 ovarian) was 26.7 µM. The GI50 (PC-3 prostate) was 17.2 µM, the TGI (PC-3 prostate) was over 100 µM and the GI50 (HCC-2998 colon) was 3.84 µM. It also gave a TGI (HCC-2998 colon) of 15.3 µM, a GI50 (UACC-62 melanoma) of 12.7 µM and a TGI (UACC-62 melanoma) of 32.1 µM. The GI50 (BT-549 breast) was 3.09 µM, the TGI (BT-549 breast) was 18 µM and the GI50 (MOLT-4 leukemia) was 4.23 µM. The TGI (MOLT-4 leukemia) was 38.5 µM, the GI50 (A549 NSCLC) was 3.99 µM and the TGI (A549 NSCLC) was 22 µM. For the same compound, the GI50 (K-562 leukemia) was 3.19 µM, the TGI (K-562 leukemia) was over 100 µM and the GI50 (SR leukemia) was 2.38 µM. The TGI (SR leukemia) was over 100 µM, the GI50 (IGROV1 ovarian) was 5.89 µM and the TGI (IGROV1 ovarian) was 23.1 µM. The GI50 (SK-MEL-2 melanoma) was 23.9 µM, the TGI (SK-MEL-2 melanoma) was 60.4 µM and the GI50 (HT29 colon) was 7.14 µM. It also gave a TGI (HT29 colon) of 25.8 µM, a GI50 (LOX IMVI melanoma) of 3.63 µM and a TGI (LOX IMVI melanoma) of 15.8 µM. For the same compound, the GI50 (M14 melanoma) was 7.76 µM, the TGI (M14 melanoma) was 27.8 µM and the GI50 (NCI/ADR-RES ovarian) was 2.24 µM. It also gave a TGI (NCI/ADR-RES ovarian) of 6.11 µM, a GI50 (T-47D breast) of 5.38 µM and a TGI (T-47D breast) of 47.3 µM. The GI50 (CAKI-1 renal) was 4.56 µM, the TGI (CAKI-1 renal) was 21.5 µM and the GI50 (HS 578T breast) was 4.84 µM. For the same compound, the TGI (HS 578T breast) was 88.9 µM, the GI50 (SN12C renal) was 3.15 µM and the TGI (SN12C renal) was 14.5 µM. It also gave a GI50 (NCI-H226 lung) of 10.6 µM, a TGI (NCI-H226 lung) of 28.6 µM and a GI50 (HCT-116 colon) of 1.97 µM. For the same compound, the TGI (HCT-116 colon) was 4.46 µM, the GI50 (CCRF-CEM leukemia) was 4.73 µM and the TGI (CCRF-CEM leukemia) was over 100 µM. For the same compound, the GI50 (U251 CNS) was 3.02 µM, the TGI (U251 CNS) was 10.7 µM and the GI50 (HCT-15 colon) was 3.87 µM. It also gave a TGI (HCT-15 colon) of 17.9 µM, a GI50 (KM12 colon) of 5.84 µM and a TGI (KM12 colon) of 73.4 µM. The GI50 (MDA-MB-468 breast) was 3.41 µM, the TGI (MDA-MB-468 breast) was 15.4 µM and the GI50 (OVCAR-8 ovarian) was 2.84 µM. The TGI (OVCAR-8 ovarian) was 9.15 µM.
